{"source": "ChEMBL document CHEMBL3608266", "about": "“Active Constituents from Drynaria fortunei Rhizomes on the Attenuation of Aβ(25-35)-Induced Axonal Atrophy” (J Nat Prod, 2015)", "test_system": "Cortical neurone", "test": "Induction of axonal regeneration in mouse cortical neurons assessed as reversal of Abeta (25 to 35)-induced axonal atrophy at 10 uM treated 3 days after Abeta (25 to 35) challenge and measured 4 days post compound dosing by pNF-H and MAP2 immunostaining method", "format": "functional", "note": "Active and inactive are the calls of the source. The rule behind the calls is not given here."}
{"smiles": "O=C(O)/C=C/c1ccc(O[C@@H]2O[C@H](CO)[C@@H](O)[C@H](O)[C@H]2O)c(O)c1", "values": [{"measurement": "Activity", "result": "Active"}]}
{"smiles": "C[C@@H]1O[C@@H](O[C@H]2[C@H](Oc3cc(O)c4c(c3)O[C@H](c3ccc(O)c(O)c3)CC4=O)O[C@H](CO)[C@@H](O)[C@@H]2O)[C@H](O)[C@H](O)[C@H]1O", "values": [{"measurement": "Activity", "result": "Active"}]}
